Measured values published in article PMC10967972, “Different Coactivator Recruitment to Human PPARα/δ/γ Ligand-Binding Domains by Eight PPAR Agonists to Treat Nonalcoholic Fatty Liver Disease” (Biomedicines, 2024).
Where two headings read alike, the source gives them in different places.

What was measured:
Format in all cases: biochemical
Conditions in all cases: for EC50: Buffer A
human PPARγ-LBD = molecular target: T1, human PPARγ-LBD (Homo sapiens, UniProt P37231); experiment: TR-FRET coactivator recruitment assay, PPARγ-LBD
T1 construct: PPARγ-LBD (AAs 203–477 in isoform 1); made in house
T1 sequence (P37231 203-477 isoform P37231-2): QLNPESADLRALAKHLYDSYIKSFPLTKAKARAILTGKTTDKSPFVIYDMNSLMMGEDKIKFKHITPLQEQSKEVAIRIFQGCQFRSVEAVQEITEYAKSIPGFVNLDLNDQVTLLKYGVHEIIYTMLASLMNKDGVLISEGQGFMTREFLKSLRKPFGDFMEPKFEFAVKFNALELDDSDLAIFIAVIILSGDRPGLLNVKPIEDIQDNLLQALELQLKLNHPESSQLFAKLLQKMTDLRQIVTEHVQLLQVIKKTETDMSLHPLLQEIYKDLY

human PPARδ-LBD = molecular target: T2, human PPARδ-LBD (Homo sapiens, UniProt Q03181); experiment: TR-FRET coactivator recruitment assay, PPARδ-LBD
T2 construct: PPARδ-LBD (AAs 170–441); made in house
T2 sequence (Q03181 170-441): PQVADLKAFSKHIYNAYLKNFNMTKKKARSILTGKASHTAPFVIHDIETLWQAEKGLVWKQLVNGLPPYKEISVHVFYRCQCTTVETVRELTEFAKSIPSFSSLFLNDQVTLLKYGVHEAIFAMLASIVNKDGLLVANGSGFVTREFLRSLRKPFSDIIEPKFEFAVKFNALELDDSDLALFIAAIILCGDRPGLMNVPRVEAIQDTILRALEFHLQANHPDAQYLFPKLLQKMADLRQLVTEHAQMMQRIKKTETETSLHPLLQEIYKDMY

human PPARα-LBD = molecular target: T3, human PPARα-LBD (Homo sapiens, UniProt Q07869); experiment: TR-FRET coactivator recruitment assay, PPARα-LBD
T3 construct: Human PPARα-LBD [amino acids (AAs) 200–468]; made in house
T3 sequence (Q07869 200-468): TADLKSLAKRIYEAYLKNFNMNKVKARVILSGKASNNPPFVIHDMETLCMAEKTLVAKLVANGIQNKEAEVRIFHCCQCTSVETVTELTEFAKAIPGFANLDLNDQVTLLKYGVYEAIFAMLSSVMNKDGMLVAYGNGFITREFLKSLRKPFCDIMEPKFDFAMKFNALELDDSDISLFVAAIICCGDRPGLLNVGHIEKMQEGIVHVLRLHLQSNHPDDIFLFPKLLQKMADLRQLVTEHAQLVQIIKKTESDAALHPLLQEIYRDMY

[1] = evaluated based on EC50 values, PGC, PGC1α, SRC, SRC1, TRAP, TRAP220

EC50 (human PPARγ-LBD; CBP peptide recruitment, read-out: PPARγ CBP EC50): 10700 nM
EC50 (human PPARγ-LBD; PGC1α peptide recruitment, read-out: PPARγ PGC1α EC50): 4980 nM
EC50 (human PPARγ-LBD; SRC1 peptide recruitment, read-out: PPARγ SRC1 EC50): 22400 nM
EC50 (human PPARγ-LBD; TRAP220 peptide recruitment, read-out: PPARγ TRAP220 EC50): 13600 nM
Approximate potency order in the recruitment of four coactivators, PPARγ (human PPARγ-LBD; [1]): PGC=CBP>TRAP>SRC
Emax (human PPARγ-LBD; read-out: PPARγ CBP % of GW1929 max response): 45.9%
Emax (human PPARγ-LBD; read-out: PPARγ PGC1α % of GW1929 max response): 49.8%
Emax (human PPARγ-LBD; read-out: PPARγ SRC1 % of GW1929 max response): 11.9%
Emax (human PPARγ-LBD; read-out: PPARγ TRAP220 % of GW1929 max response): 20.5%
EC50 (human PPARδ-LBD; CBP peptide recruitment, read-out: PPARδ CBP EC50): 46.8 nM
EC50 (human PPARδ-LBD; PGC1α peptide recruitment, read-out: PPARδ PGC1α EC50): 31.7 nM
EC50 (human PPARδ-LBD; SRC1 peptide recruitment, read-out: PPARδ SRC1 EC50): 74.8 nM
EC50 (human PPARδ-LBD; TRAP220 peptide recruitment, read-out: PPARδ TRAP220 EC50): 60.7 nM
Approximate potency order in the recruitment of four coactivators, PPARδ (human PPARδ-LBD; [1]): PGC>CBP>SRC=TRAP
recruitment of coactivators to PPARδ-LBD (in words) (human PPARδ-LBD; four coactivator peptides): effective
EC50 (human PPARδ-LBD; range over PGC1α, CBP, SRC1, TRAP220, read-out: EC50 values on the four coactivators, PPARδ): 31.7 to 74.8 nM
extent of recruitment of four coactivators to PPARδ-LBD (human PPARδ-LBD; range over four coactivators, 100% = 0.1 µM GW501516): 113–146%
Emax (human PPARδ-LBD; read-out: PPARδ CBP % of GW501516 max response): 120%
Emax (human PPARδ-LBD; read-out: PPARδ PGC1α % of GW501516 max response): 113%
Emax (human PPARδ-LBD; read-out: PPARδ SRC1 % of GW501516 max response): 146%
Emax (human PPARδ-LBD; read-out: PPARδ TRAP220 % of GW501516 max response): 136%
EC50 (human PPARα-LBD; CBP peptide recruitment, read-out: PPARα CBP EC50): 1190 nM
EC50 (human PPARα-LBD; PGC1α peptide recruitment, read-out: PPARα PGC1α EC50): 2050 nM
EC50 (human PPARα-LBD; SRC1 peptide recruitment, read-out: PPARα SRC1 EC50): 1920 nM
EC50 (human PPARα-LBD; TRAP220 peptide recruitment, read-out: PPARα TRAP220 EC50): 1840 nM
Approximate potency order in the recruitment of four coactivators, PPARα (human PPARα-LBD; [1]): CBP>PGC>SRC=TRAP
Emax (human PPARα-LBD; read-out: PPARα CBP % of GW7647 max response): 49.2%
Emax (human PPARα-LBD; read-out: PPARα PGC1α % of GW7647 max response): 34.3%
Emax (human PPARα-LBD; read-out: PPARα SRC1 % of GW7647 max response): 15.5%
Emax (human PPARα-LBD; read-out: PPARα TRAP220 % of GW7647 max response): 11%
Structure (SMILES): CCO[C@H](COc1ccc(C(F)(F)F)cc1)CSc1ccc(OCC(=O)O)c(C)c1 [Seladelpar, seladelpar]
